Laboratory results published in patent publication US20240423207A1, “PICOLINAMIDE COMPOUNDS WITH FUNGICIDAL ACTIVITY” (CORTEVA AGRISCIENCE LLC, priority 2014, published 2024).
Where two headings read alike, the source gives them in different places.

How the values were obtained:
[1] = test system: Mycosphaerella graminicola; Anamorph: Septoria tritici; test: Leaf Blotch of Wheat (SEPTTR) fungicidal activity on wheat seedlings; type: in vivo; conditions: Zymoseptoria tritici; for pest or weed control at 121.5 g/ha: Low Volume, 121.5 g/H
Protocol: Example A: Evaluation of Fungicidal Activity: Leaf Blotch of Wheat (Mycosphaerella graminicola; Anamorph: Septoria tritici; Bayer code […]): Technical grades of materials were dissolved in acetone, which were then mixed with nine volumes of water (H2O) containing 110 ppm Triton X-100. The fungicide solutions were applied onto wheat seedlings using an automated booth sprayer to run-off. All sprayed plants were allowed to air dry prior to further handling. All fungicides were evaluated using the aforementioned method for their activity vs. all target diseases, unless stated otherwise. Wheat leaf blotch and brown rust activity were also evaluated using track spray applications, in which case the fungicides were formulated as EC formulations, containing 0.1% Trycol 5941 in the spray solutions. Wheat plants (variety Yuma) were grown from seed in a greenhouse in 50% mineral soil/50% soil-less Metro mix until the first leaf was fully emerged, with 7-10 seedlings per pot. These plants were inoculated with an aqueous spore suspension of Septoria tritici either prior to or after fungicide treatments. After inoculation the plants were kept in 100% relative humidity (one day in a dark dew chamber followed by two to three days in a lighted dew chamber at 20° C.) to permit spores to germinate and infect the leaf. The plants were then transferred to a greenhouse set at 20° C. for disease to develop. When disease symptoms were fully expressed on the 1st leaves of untreated plants, infection levels were assessed on a scale of 0 to 100 percent disease severity. Percent disease control was calculated using the ratio of disease severity on treated plants relative to untreated plants.

[2] = test system: Puccinia triticina; Synonym: Puccinia recondita f sp. tritici; test: Wheat Brown Rust (PUCCRT) fungicidal activity on wheat seedlings; type: in vivo; conditions: for pest or weed control at 121.5 g/ha: Low Volume, 121.5 g/H; for pest or weed control at 100 ppm: High Volume
Protocol: Technical grades of materials were dissolved in acetone, which were then mixed with nine volumes of water (H2O) containing 110 ppm Triton X-100. The fungicide solutions were applied onto wheat seedlings using an automated booth sprayer to run-off. All sprayed plants were allowed to air dry prior to further handling. All fungicides were evaluated using the aforementioned method for their activity vs. all target diseases, unless stated otherwise. Wheat leaf blotch and brown rust activity were also evaluated using track spray applications, in which case the fungicides were formulated as EC formulations, containing 0.1% Trycol 5941 in the spray solutions. Wheat plants (variety Yuma) were grown from seed in a greenhouse in 50% mineral soil/50% soil-less Metro mix until the first leaf was fully emerged, with 7-10 seedlings per pot. These plants were inoculated with an aqueous spore suspension of Septoria tritici either prior to or after fungicide treatments. After inoculation the plants were kept in 100% relative humidity (one day in a dark dew chamber followed by two to three days in a lighted dew chamber at 20° C.) to permit spores to germinate and infect the leaf. The plants were then transferred to a greenhouse set at 20° C. for disease to develop. When disease symptoms were fully expressed on the 1st leaves of untreated plants, infection levels were assessed on a scale of 0 to 100 percent disease severity. Percent disease control was calculated using the ratio of disease severity on treated plants relative to untreated plants. Example B: Evaluation of Fungicidal Activity: Wheat Brown Rust (Puccinia triticina; Synonym: Puccinia recondita f sp. tritici; Bayer code PUCCRT): Wheat plants (variety Yuma) were grown from seed in a greenhouse in 50% mineral soil/50% soil-less Metro mix until the first leaf was fully emerged, with 7-10 seedlings per pot. These plants were inoculated with an aqueous spore suspension of Puccinia triticina either prior to or after fungicide treatments. After inoculation the plants were kept in a dark dew room at 22° C. with 100% relative humidity overnight to permit spores to germinate and infect the leaf. The plants were then transferred to a greenhouse set at 24° C. for disease to develop. Fungicide formulation, application and disease assessment followed the procedures as described in the Example A.

[3] = 24 h, 1 Day Protectant, read-out: SEPTTR 1DP disease control
[4] = 72 h, 3 Day Curative, read-out: SEPTTR 3DC disease control
[5] = 24 h, 1 Day Protectant, read-out: PUCCRT 1DP disease control
[6] = 72 h, 3 Day Curative, read-out: PUCCRT 3DC disease control
[7] = 24 h, High Volume, 100 ppm, 1 Day Protectant, read-out: SEPTTR 1DP disease control
[8] = 72 h, High Volume, 100 ppm, 3 Day Curative, read-out: SEPTTR 3DC disease control

| Structure (SMILES) | pest or weed control at 121.5 g/ha [1, 3] | pest or weed control at 121.5 g/ha [1, 4] | pest or weed control at 121.5 g/ha [2, 5] | pest or weed control at 121.5 g/ha [2, 6] | pest or weed control at 100 ppm [1, 7] | pest or weed control at 100 ppm [1, 8] | pest or weed control at 100 ppm [2, 5] | pest or weed control at 100 ppm [2, 6] | pest or weed control at 100 ppm ([1]; 24 h, read-out: SEPTTR 1DP disease control) | pest or weed control at 100 ppm ([1]; 72 h, read-out: SEPTTR 3DC disease control) |
| --- | --- | --- | --- | --- | --- | --- | --- | --- | --- | --- |
| COc1ccnc(C(=O)N[C@@H](C)C(=O)O[C@@H](C)C(F)(c2ccccc2)c2ccccc2)c1OCOC(C)=O [Cmpd 153] | > 80% | > 80% | < 80% | < 80% |  |  |  |  |  |  |
| CCOC(c1ccccc1)(c1ccccc1)[C@H](C)OC(=O)[C@H](C)NC(=O)c1nccc(OC)c1O [Cmpd 93] |  |  |  |  | > 80% | < 80% | < 80% |  |  |  |
| COc1ccnc(C(=O)N[C@@H](C)C(=O)O[C@@H](C)C(c2ccc(-c3ccccc3)cc2)c2ccc(-c3ccccc3)cc2)c1O [Cmpd 109] |  |  |  |  |  | < 80% | < 80% |  |  |  |
| COc1ccnc(C(=O)N[C@@H](C)C(=O)O[C@@H](C)C(c2ccc(Cl)c(C)c2)c2ccc(Cl)c(C)c2)c1OC(C)=O [Cmpd 206] | > 80% | > 80% | > 80% | < 80% |  |  |  |  |  |  |
| COc1ccnc(C(=O)N[C@@H](C)C(=O)O[C@@H](C)C(c2ccc(Cl)c(C)c2)c2ccc(Cl)c(C)c2)c1O [Cmpd 129] |  |  |  |  | > 80% | > 80% | > 80% | < 80% |  |  |
| CCOc1ccnc(C(=O)N[C@@H](C)C(=O)O[C@@H](C)C(c2ccc(F)cc2)c2ccc(F)cc2)c1OCOC(C)=O [Cmpd 179] | > 80% | > 80% | < 80% |  |  |  |  |  |  |  |
| COc1ccnc(C(=O)N[C@@H](C)C(=O)O[C@@H](C)C(c2cccc(F)c2)c2cccc(F)c2)c1OCOC(C)=O [Cmpd 159] | > 80% | > 80% | > 80% | > 80% |  |  |  |  |  |  |
| COc1ccnc(C(=O)N[C@@H](C)C(=O)O[C@@H](C)C(c2ccc(Br)cc2)c2ccc(Br)cc2)c1O [Cmpd 103] |  |  |  |  | > 80% | > 80% | > 80% | < 80% |  |  |
| CCCCC(=O)Oc1c(OC)ccnc1C(=O)N[C@@H](C)C(=O)O[C@@H](C)C(c1ccc(F)cc1)c1ccc(F)cc1 [Cmpd 213] | > 80% | > 80% | < 80% | < 80% |  |  |  |  |  |  |
| COc1ccc(C(c2ccc(OC)cc2)[C@H](C)OC(=O)[C@H](C)NC(=O)c2nccc(OC)c2O)cc1 [Cmpd 98] |  |  |  |  | > 80% | > 80% | > 80% | > 80% |  |  |
| COc1ccnc(C(=O)N[C@@H](C)C(=O)O[C@@H](C)C(c2ccc(F)c(C)c2)c2ccc(F)c(C)c2)c1OC(C)=O [Cmpd 217] | > 80% | > 80% | > 80% | < 80% |  |  |  |  |  |  |
| CC[C@H](NC(=O)c1nccc(OC)c1OCOC(C)=O)C(=O)O[C@@H](C)C(c1ccc(F)cc1)c1ccc(F)cc1 [Cmpd 184] | > 80% | > 80% | > 80% | > 80% |  |  |  |  |  |  |
| COc1ccnc(C(=O)N[C@@H](C)C(=O)O[C@@H](C)[C@@H](c2ccccc2)c2ccc(F)cc2)c1O [Cmpd 125] |  |  |  |  | > 80% | > 80% | > 80% | > 80% |  |  |
| COc1ccnc(C(=O)N[C@@H](C)C(=O)O[C@@H](C)C(O)(c2ccc(Cl)cc2F)c2ccc(Cl)cc2F)c1OCOC(C)=O [Cmpd 193] | > 80% | > 80% | < 80% |  |  |  |  |  |  |  |
| COc1ccnc(C(=O)N[C@@H](C)C(=O)O[C@@H](C)C(c2ccc(Cl)cc2)c2ccc(Cl)cc2)c1O [Cmpd 107] |  |  |  |  | > 80% | > 80% | > 80% | < 80% |  |  |
| COc1ccnc(C(=O)N[C@@H](C)C(=O)O[C@@H](C)C(c2ccc(Br)cc2)c2ccc(Br)cc2)c1OCOC(C)=O [Cmpd 169] | > 80% | > 80% | > 80% | < 80% |  |  |  |  |  |  |
| COc1ccnc(C(=O)N[C@@H](C)C(=O)O[C@@H](C)C(c2ccc(-c3ccccc3)cc2)c2ccc(-c3ccccc3)cc2)c1OC(C)=O [Cmpd 182] |  | < 80% |  | < 80% |  |  |  |  |  |  |
| COc1ccnc(C(=O)N[C@@H](C)C(=O)O[C@@H](C)C(c2ccc(F)c(F)c2)c2ccc(F)c(F)c2)c1OCOC(C)=O [Cmpd 218] | > 80% | > 80% | > 80% | < 80% |  |  |  |  |  |  |
| COc1ccnc(C(=O)N[C@@H](C)C(=O)O[C@@H](C)C(c2ccccc2)c2ccccc2)c1O [Cmpd 90, (S)-(S)-1,1-diphenylpropan-2-yl 2-(3-hydroxy-4-methoxypicolinamido)propanoate] |  |  |  |  |  |  | > 80% | > 80% | > 80% | > 80% |
| COc1ccnc(C(=O)N[C@@H](C)C(=O)O[C@@H](C)[C@@H](c2ccccc2)c2ccc(C(F)(F)F)cc2)c1OC(C)=O [Cmpd 173] | > 80% | > 80% | > 80% | < 80% |  |  |  |  |  |  |
| COc1ccnc(C(=O)N[C@@H](C)C(=O)O[C@@H](C)C(c2ccc(C)c(F)c2)c2ccc(C)c(F)c2)c1O [Cmpd 120] |  |  |  |  | > 80% | > 80% | > 80% | < 80% |  |  |
| COc1ccnc(C(=O)N[C@@H](C)C(=O)O[C@@H](C)C(c2ccc(F)c(C)c2)c2ccc(F)c(C)c2)c1OCOC(C)=O [Cmpd 220] | > 80% | > 80% | > 80% | < 80% |  |  |  |  |  |  |
| COc1ccnc(C(=O)N[C@@H](C)C(=O)O[C@@H](C)C(O)(c2ccc(Cl)c(Cl)c2)c2ccc(Cl)c(Cl)c2)c1OCOC(C)=O [Cmpd 201] | > 80% | > 80% | < 80% |  |  |  |  |  |  |  |
| COc1ccnc(C(=O)N[C@@H](C)C(=O)O[C@@H](C)C(c2ccc(C)cc2)c2ccc(C)cc2)c1OCOC(C)=O [Cmpd 171] | > 80% | > 80% | > 80% | > 80% |  |  |  |  |  |  |
| COc1ccnc(C(=O)N[C@@H](C)C(=O)O[C@@H](C)C(c2ccc(Cl)c(C)c2)c2ccc(Cl)c(C)c2)c1OCOC(C)=O [Cmpd 203] | > 80% | > 80% | > 80% | < 80% |  |  |  |  |  |  |
| CCOc1ccnc(C(=O)N[C@@H](C)C(=O)O[C@@H](C)C(c2ccc(F)cc2)c2ccc(F)cc2)c1O [Cmpd 111] |  |  |  |  | < 80% | > 80% | < 80% |  |  |  |
